The subject of data set [1] is reporter viruses pseudotyped with HIV-1JR-FL envelope (U87-CD4-CCR5 cells). In words: microbe, parasite or virus in culture. It counts as cell-based. To be noted: for IC50 / IC90: Human immunodeficiency virus 1, U87/CD4/CCR5.
Data set [2] deals with reporter viruses pseudotyped with HIV-1SF162 envelope (U87-CD4-CCR5 cells). Description: HIV-1 pseudovirus assay, SF162 envelope. Format: cell-based. To be noted: Human immunodeficiency virus 1, U87/CD4/CCR5. From the text: A self-inactivating (SIN) vector was derived from the pNL4-3ΔEnv-luciferase vector (Dragic et al. 1996) by deleting 507 basepairs in the U3 region of the 3′ long terminal repeat (LTR) so as to remove the TATA box and transcription factor binding sites. The human cytomegalovirus promoter was inserted upstream of the luciferase (luc) gene to enable expression of luciferase following integration.
Reporter viruses pseudotyped with HIV-1JR-FL or HIV-15F162 envelopes were generated by cotransfection of 293T cells with the SIN vector and the appropriate pcDNA env-expressing vector as previously described (Dragic et al. 1996). U87-CD4-CCR5 cells (8,000/well; NIH AIDS Research and Reference Reagent Program) were infected with 125-375 pg of HIV-L pseudoviruses in 384-well plates in the presence or absence of inhibitor(s). Cultures were incubated for 72 h at 37° C. in DMEM containing 10% fetal bovine serum, […], 0.3 mg/mL geneticin, antibiotics, and 0.5% DMSO. Luciferase activity (relative light units or RLU) was measured using BrightGlo reagent (Promega, Madison, Wis.) according to the manufacturer's instructions.
Experimental design and data analysis were based on the combination index (CI) method (Chou et al. 1991; Chou et al. 1984). […] The mutually exclusive CI formula was used for combinations of CCR5 inhibitors, while the mutually non-exclusive formula was utilized for combinations of inhibitors to distinct targets (Chou et al. 1991). Each test was conducted 4-12 times. Synergy, additivity and antagonism are indicated by CI<1, CI=1 and CI>1, respectively.
In the Bonferroni correction, P=α/n, where n is the number of comparisons. Twenty-two synergy comparisons (11 compounds×2 CI values) were made based on data generated in the membrane fusion assay, resulting in a corrected P value of 0.0023.

Data set [3] has as its system HIV-1JR-FL envelope-mediated membrane fusion. Description: microbe, parasite or virus in culture. Format: cell-based. On the set-up: CI90: unit not given beside the values.
The subject of data set [4] is HIV-1. To be noted: dose-dependent, treatment period of 10-14 days; cited from earlier work.
Data set [5] concerns the target CCR5 (Homo sapiens, UniProt P51681). The following applies: cited from earlier work.
For data set [6], the system named is HIV-1 Env-mediated fusion (HeLa-EnvJRFL with CEM NKR-CCR5 cells). In words: HIV-1 RET cell-cell fusion assay, combination testing (Part II). The following applies: PRO 140 in combination with the labelled inhibitor, 1:1 molar ratio.
Method: Serial dilutions of small molecules were conducted in DMSO. Subsequent dilutions were conducted in medium to achieve a final DMSO concentration in the assay of 0.5%. Peptides and mAbs were diluted in PBS in the absence of DMSO.
Briefly, fluorescein octadecyl ester (F18; Molecular Probes, Eugene, Oreg.; 5 mg/ml in ethanol), was diluted 1:800 in DMEM labeling medium (DMEM; Invitrogen, Carlsbad, Calif.) with 10% fetal bovine serum (FBS; HyClone, Logan, Utah) and adjusted to an A506 of 0.34±10%. […] Both dyes were further diluted 2-fold by addition to cells in T75-cm^2 flasks. HeLa-EnvJRFL and CEM NKR-CCR5 cells were incubated overnight in F18- and R18-containing culture medium, respectively. […] The plates were then read on a fluorescence plate reader (Victor^2, Perkin Elmer, Boston, Mass.) using the excitation/emission filter combinations shown in Table 6a. […]
IC50 values were generated for all combinations as described above. Combination Index (CI) and Dose Reduction (DR) values were calculated according to the following formulas:
Combinations with CI<1 are determined to be synergistic, whereas combinations with CI>1 are determined to be antagonistic. […]
In this assay, effector cells are labeled with the F18 dye and target cells with the R18 dye. […] Drug susceptibility is measured by adding serial concentrations of drugs to target cells prior to addition of effector cells. […]
Setting [7] is: Human immunodeficiency virus 1, 1st inhibitor alone.

Like-named read-outs stand apart in the source and are kept apart here.

Sequence of CCR5 (P51681 whole entry, the tested form may be a part): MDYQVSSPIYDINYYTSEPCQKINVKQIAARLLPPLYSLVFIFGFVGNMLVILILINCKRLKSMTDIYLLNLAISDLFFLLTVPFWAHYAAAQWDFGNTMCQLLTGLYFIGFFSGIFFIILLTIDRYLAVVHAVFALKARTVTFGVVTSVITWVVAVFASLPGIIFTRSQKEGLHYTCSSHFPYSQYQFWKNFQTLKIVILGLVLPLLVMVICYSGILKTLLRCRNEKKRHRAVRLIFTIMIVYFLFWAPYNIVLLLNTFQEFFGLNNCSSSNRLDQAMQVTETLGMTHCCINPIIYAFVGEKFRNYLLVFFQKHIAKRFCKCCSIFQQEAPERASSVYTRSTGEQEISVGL

Regarding `COc1ccnc2[nH]cc(C(=O)C(=O)N3CCN(C(=O)c4ccccc4)C[C@H]3C)c12` [BMS-378806, (R)—N-(benzoyl)-3-methyl-N′-[(4-methoxy-7-azaindol-3-yl)-oxoacetyl]-piperazine], the IC50 amounted to 1.2 nM in data set [1], 0.03 nM in data set [2] and 5.2 nM in data set [3] (setting [7]). Further, the IC90 in data set [1] turned out to be 11 nM; in data set [2], 0.42 nM; in data set [3] (setting [7]) it was 20 nM.

Regarding `CCCCN1C(=O)[C@@H]([C@H](O)C2CCCCC2)NC(=O)C12CCN(Cc1ccc(Oc3ccc(C(=O)O)cc3)cc1)CC2` [GW873140], the “mean reduction in HIV-1 RNA levels” value in data set [4] is ~1 log10.

With `CCO/N=C(\c1ccc(Br)cc1)C1CCN(C2(C)CCN(C(=O)c3c(C)cc[n+]([O-])c3C)CC2)CC1` [SCH-C], in data set [4], the “mean reduction in HIV-1 RNA levels” value is ~1 log10.

As to `COC[C@@H](c1ccc(C(F)(F)F)cc1)N1CCN(C2(C)CCN(C(=O)c3c(C)ncnc3C)CC2)C[C@@H]1C` [SCH-D, 1-[(4,6-dimethyl-5-pyrimidinyl)carbonyl]-4-[4-[2-methoxy-1(R)-4-(trifluoromethyl)phenyl]ethyl-3(S)-methyl-1-piperazinyl]-4-methylpiperidine], in data set [4], the “mean reduction in HIV-1 RNA levels” value is ~1 log10. The same compound showed a CI90 in data set [3] (SCH-D with UK-427,857 1:1, experiment depicted in FIG. 15B) of 0.73. The IC90 in data set [3] (SCH-D with UK-427,857, 1:1 fixed molar ratio, FIG. 15B, read-out: IC90 of the combination) was 31 nM.

Turning to `CCCCOCCOc1ccc(-c2ccc3c(c2)/C=C(/C(=O)Nc2ccc([S+]([O-])Cc4cncn4CCC)cc2)CCCN3CC(C)C)cc1` (stereo not drawn) [TAK-652], in data set [5] (Baba et al., 2005), the “anti-HIV-1 activity in vitro” value is recorded as “nanomolar range” and the oral bioavailability result was “orally bioavailable”. The tolerability entry in data set [5] (TAK-779: Iizawa et al., 2003, TAK-652: single oral dose, healthy male volunteers) is “safe and well tolerated”.

With `Cc1nnc(C(C)C)n1C1CC2CCC(C1)N2CC[C@H](NC(=O)C1CCC(F)(F)CC1)c1ccccc1` (stereo partly drawn) [UK-427,857], the IC50 in data set [3] (setting [7]) is 5.3 nM; in data set [3] (Human immunodeficiency virus 1, read-out: IC50 of the combination, UK-427,857 with PRO 140, 1:1 fixed molar ratio, total concentration, FIG. 15A), 2.1 nM. Also, the IC90 amounted to 27 nM in data set [3] (setting [7]); 21 nM in data set [3] (Human immunodeficiency virus 1, inhibitor alone, experiment depicted in FIG. 15A); 59 nM in data set [3] (Human immunodeficiency virus 1, inhibitor alone, experiment depicted in FIG. 15B); 4.6 nM in data set [3] (Human immunodeficiency virus 1, read-out: IC90 of the combination, UK-427,857 with PRO 140, 1:1 fixed molar ratio, FIG. 15A). This compound also yielded a CI90 in data set [3] (UK-427,857 with PRO 140 1:1, experiment depicted in FIG. 15A) of 0.32.

`Cc1ccnc2c1NC(=O)c1cccnc1N2C1CC1` [nevirapine]: in data set [1], the IC50 worked out at 30 nM and the IC90 stood at 310 nM. In data set [2], the IC50 was determined as 42 nM and the IC90 was 280 nM.

As for `Cc1cn([C@H]2C[C@H](N=[N+]=[N-])[C@@H](CO)O2)c(=O)[nH]c1=O` [zidovudine], in data set [1], the IC50 was 140 nM and the IC90 stood at 1900 nM. Moreover, in data set [2], the IC50 is 86 nM and the IC90 came to 2100 nM.

Regarding “RANTES: CC-chemokine, natural peptide ligand of CCR5, purchased from R&D Systems”, in data set [1] (inhibitor alone), the “inhibition of HIV-1 pseudovirus entry (in words)” value was “Neither TAK-779 nor RANTES mediated consistent, high-level inhibition”. Also, in data set [6], the “Mean CT (Combination Index at IC50 value)” value is reported as 0.59 ± 0.08. For the same compound, the “CI values (50% and 90% inhibition)” value in data set [3] (in combination with PRO 140) is listed as “Similarly potent synergy”. For the same compound, the CI50 entry in data set [3] (labelled 1st inhibitor with 2nd inhibitor UK-427,857, equimolar) is given as “Similarly potent synergy”.

The record behind these values is patent US10500274B2, “Methods for reducing viral load in HIV-1 infected patients” (CytoDyn Inc., priority 2008, dated 2019).
